We go through 1 molecule from article PMC7176092, “Development of the first in vivo GPR17 ligand through an iterative drug discovery pipeline: A novel disease-modifying strategy for multiple sclerosis” (PLoS ONE, 2020).

Structures are written as SMILES. Where “and” joins values, the source holds several entries; their conditions need not be identical. Identical values can stand only once. Like-named read-outs stand apart in the source and are kept apart here.

In experiment [1] the target is T1, CCR9 (Homo sapiens, UniProt P51686).
T1 sequence (P51686 1-369): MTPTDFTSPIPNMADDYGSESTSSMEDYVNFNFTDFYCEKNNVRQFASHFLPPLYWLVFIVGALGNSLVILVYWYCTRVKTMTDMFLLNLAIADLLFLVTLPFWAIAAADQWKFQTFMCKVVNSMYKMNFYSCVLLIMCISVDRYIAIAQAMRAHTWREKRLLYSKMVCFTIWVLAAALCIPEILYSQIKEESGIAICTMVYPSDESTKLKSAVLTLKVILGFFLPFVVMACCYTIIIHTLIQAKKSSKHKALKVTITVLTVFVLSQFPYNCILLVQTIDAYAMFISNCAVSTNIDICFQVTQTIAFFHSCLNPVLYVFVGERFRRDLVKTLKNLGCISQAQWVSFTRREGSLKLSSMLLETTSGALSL
The experiment is described as follows: Cellular functional assay CCR9.

For experiment [2], the target named is T2, M5 (Homo sapiens, UniProt P08912).
T2 construct: Eurofins Cerep (external service)
T2 sequence (P08912 1-532): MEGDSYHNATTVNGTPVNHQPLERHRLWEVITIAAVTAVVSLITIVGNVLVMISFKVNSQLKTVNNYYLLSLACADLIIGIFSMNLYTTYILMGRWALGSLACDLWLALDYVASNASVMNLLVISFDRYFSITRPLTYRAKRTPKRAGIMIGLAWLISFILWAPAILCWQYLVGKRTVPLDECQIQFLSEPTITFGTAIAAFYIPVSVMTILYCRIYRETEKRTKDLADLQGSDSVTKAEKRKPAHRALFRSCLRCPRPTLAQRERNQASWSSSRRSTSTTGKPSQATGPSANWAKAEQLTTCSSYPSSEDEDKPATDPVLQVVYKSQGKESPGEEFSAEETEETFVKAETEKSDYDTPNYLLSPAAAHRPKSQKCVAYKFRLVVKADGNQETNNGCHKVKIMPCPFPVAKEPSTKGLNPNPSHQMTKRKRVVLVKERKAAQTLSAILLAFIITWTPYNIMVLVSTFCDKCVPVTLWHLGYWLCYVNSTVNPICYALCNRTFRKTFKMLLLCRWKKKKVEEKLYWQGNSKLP
Description: Binding assay M5. As to conditions: 100 nM.

The target in experiment [3] is T3, ADR2C (Homo sapiens, UniProt P18825).
T3 construct: Eurofins Cerep (external service)
T3 sequence (P18825 1-462): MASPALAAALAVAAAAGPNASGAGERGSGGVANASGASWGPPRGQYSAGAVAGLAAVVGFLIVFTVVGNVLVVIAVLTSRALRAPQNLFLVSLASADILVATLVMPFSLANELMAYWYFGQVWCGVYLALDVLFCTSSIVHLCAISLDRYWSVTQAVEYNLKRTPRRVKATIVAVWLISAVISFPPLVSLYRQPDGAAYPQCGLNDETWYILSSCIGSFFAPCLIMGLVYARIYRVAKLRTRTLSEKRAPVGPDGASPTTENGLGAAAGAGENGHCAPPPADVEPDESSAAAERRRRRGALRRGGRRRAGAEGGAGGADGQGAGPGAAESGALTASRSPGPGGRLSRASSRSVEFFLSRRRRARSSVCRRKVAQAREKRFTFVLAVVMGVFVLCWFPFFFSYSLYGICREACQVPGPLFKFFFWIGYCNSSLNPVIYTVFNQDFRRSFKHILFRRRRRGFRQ
The experiment is described as follows: Binding assay ADR2C. The following applies: 100 nM.

Experiment [4] concerns the target T4, CXCR1 (Homo sapiens, UniProt P25024).
T4 sequence (P25024 1-350): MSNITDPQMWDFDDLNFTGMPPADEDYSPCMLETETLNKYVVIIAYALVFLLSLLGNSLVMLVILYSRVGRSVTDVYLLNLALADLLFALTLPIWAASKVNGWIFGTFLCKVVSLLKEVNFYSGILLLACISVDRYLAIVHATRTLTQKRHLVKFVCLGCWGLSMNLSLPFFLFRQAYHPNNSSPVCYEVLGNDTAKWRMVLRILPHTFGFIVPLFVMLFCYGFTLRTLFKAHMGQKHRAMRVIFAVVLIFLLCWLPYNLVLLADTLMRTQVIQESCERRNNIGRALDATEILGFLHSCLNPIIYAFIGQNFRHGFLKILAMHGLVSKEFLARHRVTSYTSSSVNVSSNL
The experiment is described as follows: Cellular functional assay CXCR1.

The target of experiment [5] is T5, CCR10 (Homo sapiens, UniProt P46092).
T5 sequence (P46092 1-362): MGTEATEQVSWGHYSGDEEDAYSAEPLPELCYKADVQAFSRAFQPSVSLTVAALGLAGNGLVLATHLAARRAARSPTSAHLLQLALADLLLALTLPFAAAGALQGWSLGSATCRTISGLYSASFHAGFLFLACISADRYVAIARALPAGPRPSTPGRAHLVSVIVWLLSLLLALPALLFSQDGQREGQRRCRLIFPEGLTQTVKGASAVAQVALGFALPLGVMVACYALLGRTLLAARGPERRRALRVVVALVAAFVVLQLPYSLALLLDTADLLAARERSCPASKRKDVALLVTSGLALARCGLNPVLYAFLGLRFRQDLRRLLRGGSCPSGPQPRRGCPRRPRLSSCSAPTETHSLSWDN
Description: Cellular functional assay CCR10.

For experiment [6], the system named is P2Y. Description: Binding assay P2Y. Details: species or system human. As to conditions: 100 nM.
[7] abbreviates: antagonist effect, 100 nM, single replicates 1st and 2nd, 0.1 µM.
The mark [8] stands for this setting: read-out: % Inhibition of control agonist response.
Where [9] appears, read: read-out: Agonist Response (% of Control), Mean, antagonist effect, 100 nM, mean of 2.
[10] abbreviates: read-out: Agonist Response (% of Control), antagonist effect, 100 nM, single replicates 1st and 2nd.
[11] abbreviates: mean of 2, read-out: % Of control specific binding, Mean.
[12] abbreviates: read-out: % Inhibition of control specific binding.
Where [13] appears, read: single replicates 1 and 2, 0.1 µM.
[14] abbreviates: single replicates 1 and 2, read-out: % Of control specific binding.

Broadly, the inhibition is the change of the read-out against control, counted positive when it falls. For the molecule `Cc1ccc(-c2nnc(SCC(=O)Nc3nccs3)[nH]2)cc1` [Compound 9], the “Agonist Response (% of Control)” value in experiment [1] (setting [7]) stood at 95.2%; in experiment [4] (setting [7]), 105.5%; in experiment [5] (setting [7]), 90.0%. Moreover, the inhibition at 0.1 µM in experiment [1] (setting [8]) was 0.1%; in experiment [2] (setting [12]), 3%; in experiment [3] (setting [12]), -9%; in experiment [4] (setting [8]) it was -0.8%; in experiment [5] (setting [8]), -0.9%. The activity at 0.1 µM stood at 102% in experiment [1] (setting [9]); 108% in experiment [1] (setting [10]); 96.3% in experiment [4] (setting [9]); 87.1% in experiment [4] (setting [10]); 87.7% in experiment [5] (setting [9]); 85.4% in experiment [5] (setting [10]). Moreover, the remaining activity at 0.1 µM in experiment [2] (setting [11]) came out at 97.4%; in experiment [2] (setting [14]), 89.7%; in experiment [3] (setting [11]), 109%; in experiment [3] (setting [14]), 109%. In addition, the “% Of control specific binding” value in experiment [2] (setting [13]) was 105.1%; in experiment [3] (setting [13]) it was 108.4%; in experiment [6] (setting [13]), 120.7% and 135.7%. For the same molecule, the “% Inhibition of control specific binding” value in experiment [6] is on record as -28%. In experiment [6] (mean of 2), the “% Of control specific binding, Mean” value worked out at 128.2%.
